Test results: US8598159B2, “Therapeutic pyrazoloquinoline derivatives” (Dart Neuroscience (Cayman) Ltd., priority 2007, dated 2013)

What was measured:
[1] = biological target: GABAA central benzodiazepine receptor; experiment: Benzodiazepine binding assay ((3H)-flunitrazepam displacement); details: read-out: BZ binding assay (IC50); rat whole brain (except cerebellum), 1 nM (3H)-flunitrazepam, 60 minutes at 25° C.; 3-concentration dose response curve
GABAA receptors = experiment: Electrophysiology assay (two-electrode voltage clamp, Xenopus oocytes expressing GABAA receptors); type: cell-based; details: positive (Pos) or negative (Neg) modulation of current at GABA EC20, screening concentration of 10 μM
Experimental: The modulation of GABAA function is determined by changes in current as determined in an electrophysiology assay, as is detailed below.
mRNA was prepared from lyophilized plasmid pellets containing cDNA inserts encoding the specific GABAA receptor subunit. cDNAs encoding the α2, α3, and γ3 subunits were subcloned into pBluescript, SK^−. cDNAs encoding the a 1 and a 5 subunits were subcloned into prC while cDNA encoding the β2 subunit was subcloned into pcDNA1. The cDNA construct encoding the g 2s subunit is in the pGH19 expression construct. Overnight cultures of transformed DH5a bacterial cells were performed to grow sufficient quantities for maxiprep isolation of the plasmid cDNA. The resulting plasmid cDNA was linearized by digestion with an appropriate restriction enzyme that cleaves distal to the cDNA insert [XbaI (α1, β2), NotI (α3, γ2 s), SacII (α2), or ApaI (α5)]. Following digestion, plasmid cDNA was treated with proteinase K and extracted with phenol/chloroform/isoamyl alcohol, followed by ethanol precipitation. cDNA quality was assessed by agarose-gel electrophoresis (1.5% agarose gel). Samples were stored at −20° C. until use. In vitro transcription was performed with T7 RNA polymerase. mRNA was then stored at −80° C. until use. Plasmids were linearized with appropriate restriction enzymes before in vitro transcription using the Message Machine kit (Ambion, Austin, Tex.).
GABAA receptor expression in Xenopus oocytes: Following 45 min of 0.15% Tricaine anesthesia, an ovarian section containing the follicular oocytes was removed from the frog through a lateral abdominal incision. Oocytes were immediately placed in a calcium-free solution (NaCl 96 mM, MgCl2 1 mM, KCl 2 mM, Hepes 50 mM, pyruvate 2.5 mM, gentamycin 100 μg/mL, penicillin-streptomycin 50 U/mL, pH 7.4). Following 1.5-2 hour incubation in 0.2% collagenase (type II, Sigma Chemical Co., St. Louis, Mo.) at room temperature, individual Dumont stage V and VI oocytes were transferred to an incubator and maintained overnight in Barth's solution (NaCl 84 mM, NaHCO3 2.4 mM, MgSO4 0.82 mM, KCl 1 mM, Ca(NO3)2 0.33 mM, CaCl2 0.41 mM, Tris/HCl 7.5 mM, pyruvate 2.5 mM, gentamycin 50 μg/mL, penicillin-streptomycin, 100 units/mL, pH 7.4) at 18-20° C. and used for experiments 1-5 days post-injection. Oocytes were injected solution using an electronic microinjector (Drummond, Broomall, Pa.) with 50 nL of RNA containing 0.3-0.5 ng of each subunit RNA in a 1:1:2 ratio. The injected oocytes were used for experiments after 1-5 days of incubation in Barth's solution at 18-20° C.
Measurements of ion currents from oocytes expressing GABAA receptors were performed using a Warner two-electrode voltage-clamp amplifier (Warner Instruments, Inc., Foster City, Calif.) (Park-Chung, M. A., et al. (1999) Brain Res. 830: 72-87 incorporated herein in its entirety). Microelectrodes were fabricated from borosilicate glass capillaries with a programmed pipette puller (Sutter Instrument Co., CA). Microelectrode resistance was 1-3 MΩ when filled with 3 M KCl. The oocyte recording chamber was continuously perfused with ND-96 solution. Oocytes were clamped at a holding potential of −70 mV during data acquisition. The membrane current was filtered at 10 Hz and sampled at 100 Hz. Compounds were applied by a gravity-driven external perfusion system. The working volume of the recording chamber was […] and the rate of the perfusion was approximately […]. Compound application was 20-25 sec followed by a minimum of 150 sec wash. Data acquisition and external perfusion was computer controlled by custom-developed software. All experiments were performed at room temperature (22-24° C.). Dose-response data from each oocyte were fitted to the Hill equation by non-linear regression using the equation: IGABA=Emax/(1+(EC50/c)nH)
Emax is the maximum response, EC50 is the concentration producing 50% of the maximal response, nH is the Hill coefficient and c is the concentration of agonist. […]

Row | IC50 [1] [nM] | EP Result (GABAA receptors) | Structure (SMILES)
1 | < 1000 | Pos | O=c1c2c[nH]c3ccc(N4CCCCC4)cc3c-2nn1-c1ccccc1 [19g, 2-Phenyl-8-piperidin-1-yl-2,5-dihydro-pyrazolo[4,3-c]quinolin-3-one]
2 | < 1000 | Pos | COc1ccc(-n2nc3c4cc(N5CCN(C(C)C)CC5)ccc4[nH]cc-3c2=O)cc1 [19i, 8-(4-Isopropylpiperazin-1-yl)-2-(4-methoxyphenyl)-2,5-dihydro-pyrazolo[4,3-c]quinolin-3-one]
3 | < 1000 | Pos | O=c1c2c[nH]c3cc(Cl)c(N4CCOCC4)cc3c-2nn1-c1ccccc1 [19k, 7-Chloro-8-morpholin-4-yl-2-phenyl-2,5-dihydro-pyrazolo[4,3-c]quinolin-3-one]
4 | < 1000 | Pos | O=c1c2c[nH]c3cc(N4CCOCC4)c(F)cc3c-2nn1-c1ccccc1 [28b, 8-Fluoro-7-morpholin-4-yl-2-phenyl-2,5-dihydro-pyrazolo[4,3-c]quinolin-3-one]
5 | < 1000 | Pos | CC(C)N1CCN(c2cc3[nH]cc4c(=O)n(-c5ccccc5)nc-4c3cc2F)CC1 [28c, 8-Fluoro-7-(4-isopropylpiperazin-1-yl)-2-phenyl-2,5-dihydro-pyrazolo [4,3-c]quinolin-3-one]
6 | < 1000 | Neg | O=c1c2c[nH]c3cc(N4CCOCC4)c(F)cc3c-2nn1-c1ccccn1 [28d, 8-Fluoro-7-(morpholin-4-yl)-2-pyridin-2-yl-2,5-dihydro-pyrazolo[4,3-c]quinolin-3-one]
7 | < 1000 | Pos | CC1CC(C)CN(c2cc3[nH]cc4c(=O)n(-c5ccccc5)nc-4c3cc2F)C1 (stereo not drawn) [28e, 7-(3,5-Dimethylpiperidin-1-yl)-8-fluoro-2-phenyl-2,5-dihydro-pyrazolo[4,3-c]quinolin-3-one]
8 |  | Neg | O=c1c2c[nH]c3c(N4CCOCC4)cc(N4CCOCC4)cc3c-2nn1-c1ccccc1 [58a, 6,8-Bis(morpholin-4-yl)-2-phenyl-2,5-dihydro-pyrazolo[4,3-c]quinolin-3-one]
9 |  | Neg | CC(C)N1CCN(c2cc(N3CCN(C(C)C)CC3)c3[nH]cc4c(=O)n(-c5ccccc5)nc-4c3c2)CC1 [58b, 6,8-Bis(4-iso-propylpiperazin-1-yl)-2-phenyl-2,5-dihydro-pyrazolo[4,3-c]quinolin-3-one]

More lines, now with the values behind:

Row | Structure (SMILES) | IC50 [1] [nM] | EP Result (GABAA receptors)
10 | O=c1c2c[nH]c3ccc(N4CCNCC4)cc3c-2nn1-c1ccccc1 [7a, 2-Phenyl-8-piperazin-1-yl-2,5-dihydro-pyrazolo[4,3-c]quinolin-3-one] | < 1000 | Pos
11 | CN1CCN(c2ccc3[nH]cc4c(=O)n(-c5ccccc5)nc-4c3c2)CC1 [7b, 8-(4-Methylpiperazin-1-yl)-2-phenyl-2,5-dihydro-pyrazolo[4,3-c]quinolin-3-one] | < 1000 | Pos
12 | O=c1c2c[nH]c3ccc(N4CCNCC4)cc3c-2nn1-c1ccc(Cl)cc1 [7c, 2-(4′-Chlorophenyl)-8-piperazin-1-yl-2,5-dihydro-pyrazolo[4,3-c]quinolin-3-one] | < 1000 | Pos
13 | CN1CCN(c2ccc3[nH]cc4c(=O)n(-c5ccc(Cl)cc5)nc-4c3c2)CC1 [7d, 2-(4′-Chlorophenyl)-8-(4-methylpiperazin-1-yl)-2,5-dihydro-pyrazolo[4,3-c]quinolin-3-one] | < 1000 | Pos
14 | COc1ccc(-n2nc3c4cc(N5CCNCC5)ccc4[nH]cc-3c2=O)cc1 [7e, 2-(4′-Methoxyphenyl)-8-piperazin-1-yl-2,5-dihydro-pyrazolo[4,3-c]quinolin-3-one] | < 1000 | Pos
15 | COc1ccc(-n2nc3c4cc(N5CCN(C)CC5)ccc4[nH]cc-3c2=O)cc1 [7f, 2-(4′-Methoxyphenyl)-8-(4-methylpiperazin-1-yl)-2,5-dihydro-pyrazolo[4,3-c]quinolin-3-one] | < 1000 | Pos
16 | O=c1c2c[nH]c3cc(N4CCNCC4)ccc3c-2nn1-c1ccccc1 [14a, 2-Phenyl-7-piperazin-1-yl-2,5-dihydro-pyrazolo[4,3-c]quinolin-3-one] | > 1000 | Neg
17 | CN1CCN(c2ccc3c4nn(-c5ccccc5)c(=O)c-4c[nH]c3c2)CC1 [14b, 7-(4-Methylpiperazin-1-yl)-2-phenyl-2,5-dihydro-pyrazolo[4,3-c]quinolin-3-one] | < 1000 | Neg
18 | O=c1c2c[nH]c3cc(N4CCNCC4)ccc3c-2nn1-c1ccc(Cl)cc1 [14c, 2-(4′-Chlorophenyl)-7-piperazin-1-yl-2,5-dihydro-pyrazolo[4,3-c]quinolin-3-one] | < 1000 | Neg
19 | CN1CCN(c2ccc3c4nn(-c5ccc(Cl)cc5)c(=O)c-4c[nH]c3c2)CC1 [14d, 2-(4-Chlorophenyl)-7-(4-methylpiperazin-1-yl)-2,5-dihydro-pyrazolo[4,3-c]quinolin-3-one] | < 1000 | Neg
20 | COc1ccc(-n2nc3c4ccc(N5CCNCC5)cc4[nH]cc-3c2=O)cc1 [14e, 2-(4-Methoxyphenyl)-7-piperazin-1-yl-2,5-dihydro-pyrazolo[4,3-c]quinolin-3-one] | < 1000 | Neg
21 | COc1ccc(-n2nc3c4ccc(N5CCN(C)CC5)cc4[nH]cc-3c2=O)cc1 [14f, 2-(4-Methoxyphenyl)-7-(4-methylpiperazin-1-yl)-2,5-dihydro-pyrazolo[4,3-c]quinolin-3-one] | > 1000 | Neg
22 | O=c1c2c[nH]c3cc(F)c(N4CCOCC4)cc3c-2nn1-c1ccccc1 [19a, 7-Fluoro-8-morpholin-4-yl-2-phenyl-2,5-dihydro-pyrazolo[4,3-c]quinolin-3-one] | < 1 | Pos
23 | CC(C)N1CCN(c2ccc3[nH]cc4c(=O)n(-c5ccccc5)nc-4c3c2)CC1 [19b, 8-(4-Isopropylpiperazin-1-yl)-2-phenyl-2,5-dihydro-pyrazolo[4,3-c]quinolin-3-one] | < 1000 | Pos
24 | O=c1c2c[nH]c3ccc(N4CCOCC4)cc3c-2nn1-c1ccccn1 [19c, 8-Morpholin-4-yl-2-pyridin-2-yl-2,5-dihydro-pyrazolo[4,3-c]quinolin-3-one] | < 1000 | Neg
25 | O=c1c2c[nH]c3ccc(N4CCOCC4)cc3c-2nn1-c1ccccc1 [19d, 8-Morpholin-4-yl-2-phenyl-2,5-dihydro-pyrazolo[4,3-c]quinolin-3-one] | < 1000 | Neg
26 | O=c1c2c[nH]c3ccc(N4CCOCC4)cc3c-2nn1-c1ccccc1F [19e, 2-(2-Fluorophenyl)-8-morpholin-4-yl-2,5-dihydro-pyrazolo[4,3-c]quinolin-3-one] | < 1000 | Neg
27 | COCCN1CCN(c2ccc3[nH]cc4c(=O)n(-c5ccccc5)nc-4c3c2)CC1 [19f, 8-[4-(2-Methoxyethyl)-piperazin-1-yl]-2-phenyl-2,5-dihydro-pyrazolo[4,3-c]quinolin-3-one] | < 1000 | Pos
28 | O=c1c2c[nH]c3cc(Cl)c(N4CCNCC4)cc3c-2nn1-c1ccccc1 [19j, 7-Chloro-2-phenyl-8-piperazin-1-yl-2,5-dihydro-pyrazolo[4,3-c]quinolin-3-one] | < 1000 | Neg
